Reference: patent US4515781A, “2',5'-Riboadenylate-morpholinoadenylate nucleotides” (The United States of America as represented by the …, priority 1983, dated 1985)
“Also recorded” adds a separate entry of the source.

Experiments:
[1] = tested on: protein synthesis in mouse L cell extracts programmed by encephalomyocarditis virus RNA; assay: Inhibition of protein synthesis (translation) in extracts of mouse L cells programmed with encephalomyocarditis virus RNA; assay type: biochemical; settings: tetramer (12) alone
Method: (§1) The preparation of cell extracts and the techniques and conditions of cell-free protein synthesis in extracts of interferon-treated or untreated mouse L cells have been described elsewhere.
(§2) This observation provided a relatively simple approach to determine if a given nucleotide or oligoribonucleotide is capable of significant binding to the 2-5A-activated ribonuclease. For this reason, the (2'→5')oligoadenylates 5'-monophosphates, 11 and 12, were evaluated first for their ability to block the translational inhibitory effects of ppp5'A2'p5'A2'p5'A in extracts of mouse L cells programmed by encephalomyocarditis virus RNA. In the experiment, the 2-5A trimer, ppp5'A2'p5'A2'p5'A, was added in varying concentrations, with or without the tetranucleotide 5'-monophosphate inhibited translation with a concentration for half-maximal response of ~2×10^-9 M in agreement with other values in the literature. However, when 12 was also present at a concentration of 8×10^-5 M, there was at least a 1000-fold increase in the concentration of 2-5A trimer triphosphate required to bring about a half-maximal inhibition of protein synthesis.

[2] = tested on: 2-5A-activated ribonuclease (translational inhibitory effects of ppp5'A2'p5'A2'p5'A); assay: Antagonism of 2-5A trimer triphosphate translational inhibition in mouse L cell extracts; assay type: biochemical
Method: as §1
as §2, with “synthesis. […]” for “synthesis.”

[3] = tested on: 2-5A-dependent endoribonuclease; assay: Prevention of 2-5A-activated degradation of [3H]-encephalomyocarditis virus RNA in extracts of mouse L cells; assay type: biochemical
Source text: (§3) To ascertain if the 2'-terminally modified (2'→5')oligonucleotides prevented the protein synthesis inhibitory action of 2-5A by the same mechanism as does p5'A2'p5'A2'p5'A (i.e., by preventing the activation of the 2-5A-dependent endoribonuclease), the 2-5A-enhanced degradation of [^3 H]-encephalomyocarditis virus RNA was followed in extracts of mouse L cells in the presence or absence of the modified tetramer monophosphate (12). The 2-5A-activated degradation of encephalomyocarditis virus RNA was prevented by 12; furthermore, there was good agreement between the results since in both instances a concentration of 8×10^-5 M 12 caused approximately a 1000-fold increase in the concentration of ppp5'A2'p5'A2'p5'A needed to effect 50% of the maximum inhibition.

[4] = tested on: poly(I)·poly(C) action (2-5A synthetase-endonuclease system); assay: Antagonism of poly(I).poly(C) protein synthesis inhibition in extracts of interferon-treated mouse L cells; assay type: biochemical
Source text: as §1
This observation implied that the inhibitory action of poly(I)·poly(C) is mediated chiefly by the 2-5A synthetase-endonuclease system. […] As observed previously with p5'A2'p5'A2'p5'A, the reversal of inhibition of poly(I)·poly(C) was not complete.

2-5A synthetase = assay: Kinetics of 2-5A synthesis in the presence of compound 11 or 12; assay type: biochemical, mouse; settings: standard synthetase assay conditions
Method: Incubation was at 30° for the designated times at which aliquots (35 μL) were removed and diluted 10× in cold H2 O. These diluted reaction mixtures were frozen at -90° until analysis.
Reaction mixture were analyzed by thin layer chromatography by spotting 2 μL of the diluted reaction mixture on a plastic PEI cullulose plate (E. Merck). The plate was developed first with solvent system D and then three times with solvent system C. […] A template of the developed film was made with aid of tracing paper, and this was used to locate the corresponding radioactive spots on the tlc plate. The plate was cut according to the positions indicated by the template, and the resulting pieces were counted with 10 mls of fluor in a standard scintillation vial. The percentage of each radioactive component by the gross radioactivity associated with all the components visualized on tlc. The position of ATP, pp5'A2'p5'A,pppA2'p5'A2'p5'A, etc. were determined from authentic markers.

[5] = biological target: antip5'A2'p5'A2'p5'Aserum; assay: Reactivity of 2',5'-oligoadenylates with antibody (enzyme-linked immunoassay); assay type: binding; settings: for IC50: enzyme-linked immunoassay, read-out: IC50, concentration required to achieve a 50% inhibition of reactivity with antip5'A2'p5'A2'p5'Aserum
Source text: ^a Concentration in nanomolar required to achieve a 50% inhibition of
reactivity with antip5'A2'p5'A2'p5'Aserum in an enzymelinked immunoassay.

[6] = Stability of 2',5'-oligoadenylates in mouse L-cell extracts, immunochemical study; assay type: in vitro ADME
Method: Oligoadenylates at a final concentration of 400 nM were incubated under protein synthesis conditions (minus [^3 H]-leu and EMCV RNA) at 30° C. for 0-6 hours. Samples were removed diluted with an equal volume of phosphate-buffered saline (PBS, 0.01M sodium phosphate, pH 7.4, 0.14M NaCl) with added 0.05% polyoxyethylene sorbitan monolaurate, (PSM) and then heated at 95° C. for 10-15 minutes. After cooling, the samples were centrifuged for 1 min. at room temperature in an Eppendorf microfuge. The supernatant samples were serially diluted (three-fold) in 0.05% PSM prior to analysis in a competitive enzyme-linked antibody assay.
In a second series of experiments, the degradation of both the 5'-monophosphates and 5'-triphosphate of the terminally modified oligomers was compared to the degradation of the corresponding unmodified mono- and tri-phosphates. In this case, however, the course of reaction was followed using an immunoenzymometric assay for 2-5A and its derivatives. The antiserum employed in this study was inhibited 50% by both the unmodified and 2'-terminally modified 2',5'-oligoadenylates in the nanomolar range, the tetramer oligoadenylates being 2-5 times more reactive than the corresponding trimer species (Table 3, experimental). In contrast, the dimers were much less reactive, requiring concentrations of about 300 nM to achieve this same level of inhibition. […]

[7] = tested on: 2-5A-dependent endoribonuclease (RNase L); assay: 2-5A-enhanced degradation of [3H]-encephalomyocarditis virus RNA in cell extracts (activation of RNase L); assay type: biochemical, mouse
Source text: as §3
The enhanced activity of the 2'-terminally modified tetramer triphosphate 13 also was observed when the degradation of [^3 H]-encephalomycarditis virus RNA in cell extracts was examined. Modified tetramer triphosphate (13) enhanced degradation of labeled RNA with a concentration of 9×10^-11 M necessary to elicit a half-maximal response compared to ppp5'A2'p5'A2'p5'A which required a concentration of 9×10^-10 M to elicit a half-maximal response. In addition, there was good correlation between these values and the corresponding concentrations response for inhibition of protein synthesis.

reticulocyte lysate = settings: compared to tetramer triphosphate; cited from earlier work

Compound	effect on translation by itself [1]	effectiveness as antagonist of 2-5A action (in words) [2]	increase in the concentration of 2-5A trimer triphosphate required for half-maximal inhibition of protein synthesis ([2]; 12 at 8×10^-5 M) [fold]	prevention of 2-5A-activated degradation of encephalomyocarditis virus RNA [3]	increase in the concentration of ppp5'A2'p5'A2'p5'A needed to effect 50% of the maximum inhibition ([3]; 8×10^-5 M 12) [fold]	prevention of protein synthesis inhibition caused by poly(I).poly(C) (in words) [4]	potency in preventing the inhibitory action of poly(I).poly(C) (in words) ([4]; 11 vs 12)	effect on the rate of synthesis of 2-5A (2-5A synthetase)	effect on the rate of synthesis of 2-5A (2-5A synthetase; listed as "tailed" (pA)4)	IC50 [5] [nM]	stability in cell-free extracts relative to unmodified 2',5'-oligoadenylates [6]	antibody reactivity during incubation ([6]; 4×10^-7 M oligomer, 6 hours of incubation)	antibody inhibition by mononucleotides and adenosine [5]	activity as activator of RNase L (in words) [7]	biological activity in reticulocyte lysate (reticulocyte lysate)
5'-monophosphoryladenylyl-(2'→5')-adenylyl-(2'→5')adenylyl(2'→6')(3'-aza-4'-hexyl-1',2',3',4'-tetradeoxyhexopyranos-1'-yl)adenine [Compound 12]	no significant effect on translation	somewhat more effective than the trimer 11 in preventing 2-5A action	≥ 1000	prevented	~1000	not complete	approximately equal potency	neither 11 nor 12 affected the rate of formation of 2-5A	neither "tailed" (pA)3 nor "tailed" (pA)4 had any significant effect on the rate of synthesis	1	markedly more stable in cell-free extracts than the unmodified 2',5'-oligoadenylates	did not decrease even after 6 hours of incubation; also recorded: increased slightly with time	–	–	–
Nc1ncnc2c1ncn2[C@@H]1O[C@H](CO)[C@@H](O)[C@H]1O [adenosine]	–	–	–	–	–	–	–	–	–	–	–	–	inhibitory only at millimolar concentrations	–	–
ppp5'A2'p5'A2'p5'A	–	–	–	–	–	–	–	–	–	18	–	–	–	quite similar as activators of RNase L	anomalously low compared to tetramer triphosphate
